Measurements reported in EP1136472A1, “ARYL- AND HETEROARYLAMIDES OF CARBOALKOXYSULFANILIC ACIDS” (priority 1998, dated 2000).
Converted amounts (≈) assume the structure as drawn. Like-named read-outs stand apart in the source and are kept apart here.

Columns and labels:
[1] = system: Human's platelet aggregation; assay: Antiaggregational properties, ADP-induced platelet aggregation in platelet-rich plasma; assay type: cell-based; settings: adenosine diphosphate 2.5 µmol/l
Method: Human's platelet aggregation was investigated in plasma of healthy 50±3 years donors that was enriched by thrombocytes, by means of aggregometer FRM-1. The substance under investigation was added to blood plasma samples (100 µg/ml) before inducing aggregation by means of adenosine diphosphate (2.5 µmol/l). Magnitude of the maximum non-reversible platelet aggregation in the control samples (solvent) was adopted as 100%, and that in tested samples was counted as percentage compared to the control. Inhibition of the aggregation by more than 50% at the given concentration was evaluated as meaningful inhibition. Adenosine (5 µg/ml) and aspirin (9 µg/ml), that inhibit aggregation at these concentrations by 100%, were utilized as reference agents.

[2] = system: Mycobacterium tuberculosis H37RV; assay: Antimicrobial action, serial dilution method; assay type: cell-based; settings: 72-hour cultivation at 37°C
[3] = system: Herpes Simplex virus of the type I (HSV-I /Leningrad/248/88); assay: Antiviral effect on Herpes Simplex virus (cytopathogenic action on Vero cells); assay type: cell-based; settings: compound concentration of 100 µg/ml; for Quantity of the unchanged cells: number of cells in 100 visual fields, after 36 hours; for percentage of protection: protection of cells from virus as compared to the control of cell culture
[4] = assay type: in vivo; settings: mice, observed 72 hours, 300 was the maximally utilized
Method: Tested substance was introduced perorally (in dose of 300 mg/kg) through a gastric tube or intraperitoneally (in dose of 100 mg/kg) to no-breed white mice with mass 18-20 g (each tested group consisted of 3 males and 3 females). Then the mouse state was observed during 72 hours. Absence of symptoms characteristic of toxic effects, or absence of animal death during the given time allows to make a conclusion that the toxicity of the tested substance is low.

C.trachomatis D323 = assay: Antichlamydial activity in infected cell culture (McCoy and L929); assay type: cell-based, Chlamydia trachomatis; settings: 100 mg/l; for percentage of cell protection from infection / Number of unchanged cells: 48 hours; for Number of unchanged cells: counted in 100 visual fields
Method: The antichlamydial activity of the claimed compounds was studied in respect to C.trachomatis […], which is a standard strain contained in the collection of the department of microbiology of St. Petersburg State Pavlov Medical University. […] Cell cultures McCoy and L929 obtained from the Institute of Cytology of RAS were used in this work. Cells were grown in flasks made of neutral glass in the medium RPMI-1640 containing 10% of fetal calf serum. The test was performed in flat-bottom flasks made of glass (non-toxic), that were supplied with cover glasses. The cells were introduced into the medium in the final concentration of 1x10^6 cell/ml. […] Simultaneously, tested compounds in a final concentration of 100 mg/l were added to the cells. The sample was centrifuged at 2400 G for 60 minutes at a room temperature and incubated at 37°C for 2 hours. […] The samples were doubled using the medium without cycloheximide so as to exclude its effect on the investigated compounds. The samples were incubated for 48 hours in CO2-incubator. The controls included: • 1. Control of cell culture • 2. Control of action of solvents • 3. Control of action of chlamydia in absence of any compounds • 4. […] Control of the tested compounds as to toxicity in respect to the cell culture. Evaluation of the results was carried out by the way of determination of chlamydial cytoplasmatic inclusions (CPI) that was conducted by the method of immunofluorescence (MicroTrack Chlamydia trachomatis Direct Specimen Test), and by the way of determination of chlamydia antigens that was conducted by means of CylaMonoScreen (Russian-British Joint Venture 66 Regent's Parc Road London NW1 7SX). The effect of the action of compound was determined by analysis of the monolayer state and number of cells with CPI when compared with the control (cell culture infected with C.trachomatis […]); in doing so, the number of unchanged cells, that were counted in 100 visual fields obtained using the eyepiece-micrometer, was taken into consideration.

[5] = system: primary culture of human lymphocytes; assay: Interferon-inducing activity in primary culture of human lymphocytes (IFN-α immunoenzyme test); assay type: cell-based
Method: Interferon synthesis induction caused by the claimed compounds was conducted on a primary culture of human lymphocytes (it is these cells in a human organism that are the main producers of interferons). To obtain lymphocyte culture, fresh blood (within 12 hours after sampling) from healthy donors (not of group II) was used. To separate lymphocytes, heparinized blood obtained from healthy donor was centrifuged in a density gradient ficoll-verografin of […] in order to extract a fraction of immunocompetent cells. This fraction was selected and diluted with the nutrient medium RPMI-1640, containing 5% of fetal calf serum, 0.3 mg/ml of L-glutamin, 100 un/ml of penicillin, and 50 µg/ml of streptomycin. The concentration of lymphocytes was considered after dying them with methylene blue and calculation of cell number in a chamber of a hemocytometer. Initial solutions of the claimed compounds were diluted with the nutrient medium RPMI-1640 so that the final concentrations of the compounds, which were obtained after introduction of lymphocyte suspension, constituted the raw: 100 µg/ml, 10 µg/ml, 1 µg/ml. The final concentration of lymphocytes in the induction mixture was 3x10^6 cell/ml.
Control and test samples were incubated for 24 hours at the temperature of 37°C. After incubation, the samples were centrifuged at 2,000 G to deposit cell elements, and IFN-containing supernatant was separate out of the samples; then the supernatant was analyzed for the quantitative content of IFN. Cell deposition was resuspended in the preceding volume of nutrient medium, colored with vital dye trypan blue, and cell number was counted in a chamber of a hemocytometer (as described above) to determine cytotoxic action of the compounds.
Quantitative determination of the content of IFN in control and test samples was conducted using the immunoenzyme test system Pro Con IF2 Plus, that is intended for determination of IFN-α, which is produced by TOO "Protein contour". The solid-phase immunoenzyme method, utilizing horse radish peroxidase as an indicator enzyme, was used to determine the quantity of interferon in the samples. Activity of the bonded peroxidase was measured using an automatic photometer for microplates with a microprocessor at the wavelength of 450 nm.
Based on the obtained results, a calibrating curve was formed, which allows to obtain data expressed in international units (IU) of activity, using the microprocessor of the automatic photometer. The results of the analysis are expressed in IU of activity of IFN per ml in the given induction system, which contains 3x10^6 lymphocyte/ml. Each test and control point was investigated in four parallels.
Controls of immunoenzyme reaction: • 1. Control of DMSO with a nutrient medium. • 2. Control of system components (according to an instruction).
The obtained data were undergone a statistical analysis using t-criterion, and calculation of the confident interval of probability at p=0.05 was carried out. Coincidence between the results obtained in the parallel tests was analyzed.

[6] = system: alanine-aminotranspherase (AlAT); assay: Hepatoprotective activity, CCl4 liver damage in rats; assay type: in vivo
Method: CCl4 dissolved in 50% olive oil (1 ml/kg) was subcutaneously administrated to rats. Test substances were administrated perorally in a dose of 20 mg/kg 30 minutes before and 7 hours after the CCL4 administration. The activity of alanine-aminotranspherase (AlAT), which is a marker enzyme of liver parenchyma damage, was assessed twenty-four hours later. Reducing of enzyme amount by more than 30% relative to the control group was considered as evidence of hepatoprotective properties of the substance. Vitamin E in a dose of 100 mg/kg was used as a reference agent.

[7] = Mycobacterium tuberculosis, H37RV, read-out: MIC

Molecule: Nc1ncnc2c1ncn2[C@@H]1O[C@H](CO)[C@@H](O)[C@H]1O [Adenosine]
- inhibition at 5 µg/mL ([1]; Homo sapiens, Platelet, 5 µg/ml): 100%

Molecule: CC(=O)Oc1ccccc1C(=O)O [Aspirin, aspirin]
- inhibition at 9 µg/mL ([1]; Homo sapiens, Platelet, 9 µg/ml): 100%

Molecule: CC[C@@H](CO)NCCN[C@@H](CC)CO [Ethambutol]
- MIC [2, 7]: 5 µg/mL (≈ 24.5 µM)

Molecule: NNC(=O)c1ccncc1 [Isoniazid]
- MIC [2, 7]: 0.1 µg/mL (≈ 0.729 µM)

Molecule: CC1COc2c(N3CCN(C)CC3)c(F)cc3c(=O)c(C(=O)O)cn1c23 (stereo not shown) [Ofloxacin]
- MIC [2, 7]: 0.5 µg/mL (≈ 1.38 µM)

Molecule: [H]/N=C(/N)N[C@H]1[C@H](O)[C@@H](O)[C@H](O[C@@H]2O[C@@H](C)[C@](O)(C=O)[C@H]2O[C@@H]2O[C@@H](CO)[C@H](O)[C@@H](O)[C@@H]2NC)[C@@H](N/C(N)=N\[H])[C@@H]1O [Streptomycin]
- MIC [2, 7]: 0.2 µg/mL (≈ 0.344 µM)

Molecule: CCCCOC(=O)Nc1ccc(S(=O)(=O)Nc2ccc([N+](=O)[O-])cc2)cc1 [VII, Carbobutoxysulfanylic acid (4-nitrophenyl)amide]
- Quantity of the unchanged cells [3]: 8000
- percentage of protection [3]: 80%
- Maximal tolerable dose: Concentration of tested compounds at oral introducing [4]: 300 mg/L

Molecule: CCCCOC(=O)Nc1ccc(S(=O)(=O)Nc2c(Cl)cccc2Cl)cc1 [X, Carbobutoxysulfanylic acid (2,6-dichlorophenyl)amide]
- percentage of cell protection from infection (C.trachomatis D323): 50%
- Number of unchanged cells (C.trachomatis D323): 4.000
- Quantity of the unchanged cells [3]: 7000
- percentage of protection [3]: 70%
- Content of IFN in induction mixture after 24-hour incubation ([5]; 1 mg/l): 7 ± 1 IU/3x10^4 lymph./ml
- Content of IFN in induction mixture after 24-hour incubation ([5]; 10 mg/l): 26 ± 1 IU/3x10^4 lymph./ml
- Content of IFN in induction mixture after 24-hour incubation ([5]; 100 mg/l): 100 ± 3 IU/3x10^4 lymph./ml

Molecule: CCCCOC(=O)Nc1ccc(S(=O)(=O)Nc2cccc(Br)c2)cc1 [XII, Carbobutoxysulfanylic acid (3-bromophenyl)amide]
- percentage of cell protection from infection (C.trachomatis D323): 45%
- Number of unchanged cells (C.trachomatis D323): 3.600
- Quantity of the unchanged cells [3]: 5000
- percentage of protection [3]: 50%
- Content of IFN in induction mixture after 24-hour incubation ([5]; 1 mg/l): 1,3 ± 0,2 IU/3x10^4 lymph./ml
- Content of IFN in induction mixture after 24-hour incubation ([5]; 10 mg/l): 2 ± 0,5 IU/3x10^4 lymph./ml
- Content of IFN in induction mixture after 24-hour incubation ([5]; 100 mg/l): 2,5 ± 0,6 IU/3x10^4 lymph./ml

Molecule: CCCCCOC(=O)Nc1ccc(S(=O)(=O)Nc2c(C)n(C)n(-c3ccccc3)c2=O)cc1 [XLI, Carbopentoxysulfanylic acid (1,5-dimethyl-2-phenylpyrazolone-4-yl)-amide]
- activity against chlamydia (in words) (C.trachomatis D323): marked biological activity against chlamydia
- percentage of cell protection from infection (C.trachomatis D323): 55%
- Number of unchanged cells (C.trachomatis D323): 4.400
- Quantity of the unchanged cells [3]: 7500
- percentage of protection [3]: 75%
- Content of IFN in induction mixture after 24-hour incubation ([5]; 1 mg/l): 5 ± 0.4 IU/3x10^4 lymph./ml
- Content of IFN in induction mixture after 24-hour incubation ([5]; 10 mg/l): 18.7 ± 0.2 IU/3x10^4 lymph./ml
- Content of IFN in induction mixture after 24-hour incubation ([5]; 100 mg/l): 69 ± 1 IU/3x10^4 lymph./ml

Molecule: CCCCCCOC(=O)Nc1ccc(S(=O)(=O)Nc2ccccc2C)cc1 [XXIX, Carbohexoxysulfanylic acid (2-toluyl)amide]
- % of inhibition ([1]; 100 µg/ml): 33.3±8.2%
- % of reducing AlAT ([6]; perorally 20 mg/kg 30 minutes before and 7 hours after CCl4, AlAT twenty-four hours later, relative to the control group): -36%
- activity against chlamydia (in words) (C.trachomatis D323): marked biological activity against chlamydia
- percentage of cell protection from infection (C.trachomatis D323): 55%
- Number of unchanged cells (C.trachomatis D323): 4.400
- Quantity of the unchanged cells [3]: 6000
- percentage of protection [3]: 60%

Molecule: Carbo(2,2,2-trifluorethoxy)-sulfanylic acid (1,2,4-thiadiazole-2-butyl-5-yl)amide [XL]
- Quantity of the unchanged cells [3]: 7000
- percentage of protection [3]: 70%
- Content of IFN in induction mixture after 24-hour incubation ([5]; 1 mg/l): 1.6 ± 0.1 IU/3x10^4 lymph./ml
- Content of IFN in induction mixture after 24-hour incubation ([5]; 10 mg/l): 3.6 ± 0.5 IU/3x10^4 lymph./ml
- Content of IFN in induction mixture after 24-hour incubation ([5]; 100 mg/l): 14 ± 0.2 IU/3x10^4 lymph./ml

Molecule: Carboheptoxysulfanylic acid (1,2,4-thiadiazole-2-hexyl-5-yl)amide [XXXIV]
- MIC [2]: 50 µg/mL

Molecule: Rifampycin
- MIC [2]: 0.05 µg/mL

Molecule: Vitamin E [reference compound]
- % of reducing AlAT ([6]; Vitamin E in a dose of 100 mg/kg, reference agent): -30%
